The values below come from patent US20080207694A1, “Hydroxamates as Histone Deacetylase Inhibitors and Pharmaceutical Formulations Containing Them” (priority 2005, published 2008).

Test [1] deals with Human colon carcinoma cells HCT-116. Put plainly: Cytotoxic activity on culture of human colon carcinoma cells HCT-116 (Alamar Blue). Type of test: cell-based. Conditions: HCT-116 cells, 72 hours after addition of compounds, Alamar Blue viability. As for the experimental part:
(§1) The activity of the compounds as histone deacetylase (HDAC) inhibitors was measured using an in vitro acetylation assay. The compounds were then evaluated as inhibitors of proliferation of human tumor cell cultures.
24 hours after seeding, the compounds at different concentrations are added. […] 72 hours after addition of the compounds, cell viability is measured by means of the dye Alamar Blue.
(In general: Alamar Blue is a resazurin reagent that responds to reducing activity.)

In test [2] the test system is histone deacetylase (HDAC), nuclear extract of Hela cells. The experiment in a line: Deacetylase activity on nuclear extract of HeLa cells (Fluor de Lys kit). It is filed as biochemical, human. Conditions: percent inhibition relative to control without inhibitor, compound at 0.1 μM. The method, then:
as §1
Deacetylase Activity on Nuclear Extract of Hela Cells (Human Cervical Cancer Cell)
The assay (Fluor de Lys™ kit, BioMol) is divided into two steps: in the first step the substrate which comprises an acetylated lysine residue is reacted with the nuclear extract (HeLa) containing the enzymatic activity in the presence and absence of inhibitors. In the second step a fluorogenic reagent is added which highlights the deacetylated residues. A reduction in fluorescence is obtained where there has been inhibition of the deacetylase activity. The result is finally expressed as percent inhibition relative to the control without inhibitor at a concentration of 0.1 μM.

As to `O=C(CCCC1CCN(C(=O)NCc2ccccc2)CC1)NO` [Ex 7, 4-(3-Hydroxycarbamoyl-propyl)-piperidine-1-carboxylic acid benzylamide], the 50% inhibitory concentration (IC50) – broadly, the point on the concentration scale where inhibition reaches its midpoint – in test [1] (Homo sapiens, HCT-116, 72 h) worked out at 300 nM. In addition, the “% inhib. 0.1 μM” value in test [2] is listed as 59%.

In test [1] (Homo sapiens, HCT-116, 72 h), `O=C(CCCC1CCN(C(=O)Nc2ccccc2)CC1)NO` [Ex 8, 4-(3-Hydroxycarbamoyl-propyl)-piperidine-1-carboxylic acid phenylamide] yielded an IC50 of 700 nM. The “% inhib. 0.1 μM” value in test [2] stood at 53%.

Turning to `Cc1ccc2ccccc2c1C(=O)N1CCC(CCCC(=O)NO)CC1` [Ex 15, N-Hydroxy-4-[1-(2-methyl-naphthalene-1-carbonyl)-piperidin-4-yl]-butyramide], inhibition in test [1] (Homo sapiens, HCT-116, 72 h) was half-maximal at 840 nM (IC50). Also, the “% inhib. 0.1 μM” value in test [2] was determined as 43%.

In turn, `Cc1ccc(NC(=O)N2CCC(CCCC(=O)NO)CC2)cc1` [Ex 22, 4-(3-Hydroxycarbamoyl-propyl)-piperidine-1-carboxylic acid p tolylamide] returned an IC50 in test [1] of 940 nM. Moreover, the “% inhib. 0.1 μM” value in test [2] was determined as 67%.

The compound `O=C(CCCC1CCN(C(=O)NCc2ccc(Cl)cc2)CC1)NO` [Ex 34, 4-(3-Hydroxycarbamoyl-propyl)-piperidine-1-carboxylic acid 4-chloro-benzylamide] displayed an IC50 in test [1] (Homo sapiens, HCT-116, 72 h) of 330 nM. Besides, the “% inhib. 0.1 μM” value in test [2] turned out to be 64%.

In test [1] (Homo sapiens, HCT-116, 72 h), `O=C(CCCC1CCN(C(=O)Nc2cccc3ccccc23)CC1)NO` [Ex 35, 4-(3-Hydroxycarbamoyl-propyl)-piperidine-1-carboxylic acid 1-naphthylamide] had an IC50 of 710 nM. Moreover, the “% inhib. 0.1 μM” value in test [2] stood at 55%.

For the compound `O=C(CCCC1CCN(C(=O)Nc2ccc3ccccc3c2)CC1)NO` [Ex 36, 4-(3-Hydroxycarbamoyl-propyl)-piperidine-1-carboxylic acid 2-naphthylamide], in test [1] (Homo sapiens, HCT-116, 72 h), the IC50 was 830 nM. Further, the “% inhib. 0.1 μM” value in test [2] was 73%.

In turn, `O=C(CCCC1CCN(C(=O)NCc2cccc(Cl)c2)CC1)NO` [Ex 39, 4-(3-Hydroxycarbamoyl-propyl)-piperidine-1-carboxylic acid 3-chloro-benzylamide] displayed an IC50 in test [1] (Homo sapiens, HCT-116, 72 h) of 810 nM. In addition, the “% inhib. 0.1 μM” value in test [2] is recorded as 60%.

As to `O=C(CCCC1CCN(C(=O)NCc2ccccc2F)CC1)NO` [Ex 45, 4-(3-Hydroxycarbamoyl-propyl)-piperidine-1-carboxylic acid 2-fluoro-benzylamide], the midpoint of inhibition in test [1] (Homo sapiens, HCT-116, 72 h), the IC50, lay at 890 nM. Further, in test [2], the “% inhib. 0.1 μM” value was found to be 79%.

In test [1] (Homo sapiens, HCT-116, 72 h), `Cc1ccc(CNC(=O)N2CCC(CCCC(=O)NO)CC2)cc1` [Ex 52, 4-(3-Hydroxycarbamoyl-propyl)-piperidine-1-carboxylic acid 4-methyl-benzylamide] came in with a 50% inhibitory concentration (IC50) of 500 nM. Further, in test [2], the “% inhib. 0.1 μM” value was 68%.

Consider `Nc1ccccc1NC(=O)N1CCC(CCCC(=O)NO)CC1` [Ex 73, 4-(3-Hydroxycarbamoyl-propyl)-piperidine-1-carboxylic acid (2-amino-phenyl)-amide], for which half-maximal inhibition in test [1] (Homo sapiens, HCT-116, 72 h) (IC50) required 840 nM. Moreover, the “% inhib. 0.1 μM” value in test [2] was found to be 73%.

In turn, `O=C(CCCC1CCN(C(=O)CNC(=O)c2cc3ccccc3s2)CC1)NO` [Ex 79, Benzo[b]thiophene-2-carboxylic acid {2-[4-(3-hydroxycarbamoyl-propyl)-piperidin-1-yl]-2-oxo-ethyl}-amide] showed an IC50 in test [1] (Homo sapiens, HCT-116, 72 h) of 770 nM. For the same compound, the “% inhib. 0.1 μM” value in test [2] came out at 70%.

In test [1] (Homo sapiens, HCT-116, 72 h), `N[C@@H](CCc1ccccc1)C(=O)N1CCC(CCCC(=O)NO)CC1` [Ex 82, 4-[1-(2-(S)-Amino-4-phenyl-butyryl)-piperidin-4-yl]-N-hydroxy-butyramide] displayed a 50% inhibitory concentration (IC50) of 530 nM. Also, in test [2], the “% inhib. 0.1 μM” value amounted to 62%.

`O=C(CCCC1CCN(C(=O)Nc2cccc(Cl)c2F)CC1)NO` [Ex 83, 4-(3-Hydroxycarbamoyl-propyl)-piperidine-1-carboxylic acid (3-chloro-2-fluoro-phenyl)-amide] displayed a concentration for half-maximal inhibition (IC50) in test [1] (Homo sapiens, HCT-116, 72 h) of 670 nM. Also, the “% inhib. 0.1 μM” value in test [2] came to 58%.

`O=C(CCCC1CCN(C(=O)Nc2ccc(Cl)cc2F)CC1)NO` [Ex 90, 4-(3-Hydroxycarbamoyl-propyl)-piperidine-1-carboxylic acid (4-chloro-2-fluoro-phenyl)-amide] yielded an IC50 in test [1] (Homo sapiens, HCT-116, 72 h) of 450 nM. Moreover, the “% inhib. 0.1 μM” value in test [2] was found to be 56%.

`N[C@H](Cc1cccc2ccccc12)C(=O)N1CCC(CCCC(=O)NO)CC1` [Ex 93, 4-[1-(2-(R)-Amino-3-naphthalen-1-yl-propionyl)-piperidin-4-yl]-N-hydroxy-butyramide]: in test [1] (Homo sapiens, HCT-116, 72 h), the midpoint of inhibition, the IC50, lay at 500 nM. Further, the “% inhib. 0.1 μM” value in test [2] was 64%.

In turn, `O=C(CCCC1CCN(C(=O)[C@H](CO)NC(=O)c2cc3ccccc3s2)CC1)NO` [Ex 101, Benzo[b]thiophene-2-carboxylic acid {2-[4-(3-hydroxycarbamoyl-propyl)-piperidin-1-yl]-1-(S)-hydroxymethyl-2-oxo-ethyl}-amide] yielded an IC50 in test [1] (Homo sapiens, HCT-116, 72 h) of 510 nM. For the same compound, the “% inhib. 0.1 μM” value in test [2] stood at 64%.

Compound `O=C(CCCC1CCN(C(=O)[C@@H](CO)NC(=O)c2cc3ccccc3s2)CC1)NO` [Ex 102, Benzo[b]thiophene-2-carboxylic acid {2-[4-(3-hydroxycarbamoyl-propyl)-piperidin-1-yl]-1-(R)-hydroxymethyl-2-oxo-ethyl}-amide] came in with a half-maximal inhibitory concentration (IC50) in test [1] (Homo sapiens, HCT-116, 72 h) of 790 nM. In addition, the “% inhib. 0.1 μM” value in test [2] was 54%.

In test [1] (Homo sapiens, HCT-116, 72 h), `CN(C)[C@@H](CCc1ccccc1)C(=O)N1CCC(CCCC(=O)NO)CC1` [Ex 103, 4-[1-(2-(S)-Dimethylamino-4-phenyl-butyryl)-piperidin-4-yl]-N-hydroxy-butyramide] yielded an IC50 of 200 nM. Moreover, the “% inhib. 0.1 μM” value in test [2] was determined as 49%.

As for `N[C@@H](CCc1ccccc1)C(=O)N1CCC(CCCC(=O)NO)CC1` [Ex 105, 4-[1-(2-(S)-Amino-4-phenyl-butyryl)-piperidin-4-yl]-N-hydroxy-butyramide], 950 nM corresponded to half-maximal inhibition in test [1] (IC50). In addition, in test [2], the “% inhib. 0.1 μM” value was 59%.

Regarding `O=C(CCCC1CCN(C(=O)NCc2ccco2)CC1)NO` [Ex 106, 4-(3-Hydroxycarbamoyl-propyl)-piperidine-1-carboxylic acid (furan-2-ylmethyl)-amide], half-maximal inhibition in test [1] (Homo sapiens, HCT-116, 72 h) (IC50) was put at 710 nM. For the same compound, the “% inhib. 0.1 μM” value in test [2] is given as 52%.

For the compound `N[C@@H](CC(=O)N1CCC(CCCC(=O)NO)CC1)c1ccc2ccccc2c1` [Ex 109, 4-[1-(3-(S)-Amino-3-naphthalen-2-yl-propionyl)-piperidin-4-yl]-N-hydroxy-butyramide], the half-maximal inhibitory concentration (IC50) in test [1] (Homo sapiens, HCT-116, 72 h) was found to be 68 nM. Besides, the “% inhib. 0.1 μM” value in test [2] was 71%.

`O=C(CCCC1CCN(C(=O)[C@@H](CCO)NC(=O)c2cc3ccccc3s2)CC1)NO` [Ex 110, Benzo[b]thiophene-2-carboxylic acid{3-hydroxy-1-(R)-[4-(3-hydroxycarbamoyl-propyl)-piperidine-1-carbonyl]-propyl}-amide] had a concentration for half-maximal inhibition (IC50) in test [1] of 260 nM. Further, the “% inhib. 0.1 μM” value in test [2] is on record as 54%.

In the case of `N[C@H](CC(=O)N1CCC(CCCC(=O)NO)CC1)c1ccc2ccccc2c1` [Ex 111, 4-[1-(3-(R)-Amino-3-naphthalen-2-yl-propionyl)-piperidin-4-yl]-N-hydroxy-butyramide], in test [1] (Homo sapiens, HCT-116, 72 h), the IC50 amounted to 550 nM. The “% inhib. 0.1 μM” value in test [2] is 66%.

Compound `N[C@@H](CC(=O)N1CCC(CCCC(=O)NO)CC1)c1ccccc1` [Ex 112, 4-[1-(3-(S)-Amino-3-phenyl-propionyl)-piperidin-4-yl]-N-hydroxy-butyramide] came in with a concentration for half-maximal inhibition (IC50) in test [1] (Homo sapiens, HCT-116, 72 h) of 310 nM. In addition, the “% inhib. 0.1 μM” value in test [2] worked out at 55%.

Compound `O=C(CCCC1CCN(C(=O)[C@H](CCO)NC(=O)c2cc3ccccc3s2)CC1)NO` [Ex 113, Benzo[b]thiophene-2-carboxylic acid{3-hydroxy-1-(S)-[4-(3-hydroxycarbamoyl-propyl)-piperidine-1-carbonyl]-propyl}-amide] had an IC50 in test [1] of 270 nM. For the same compound, the “% inhib. 0.1 μM” value in test [2] is on record as 61%.

Turning to `O=C(CCCC1CCN(C(=O)[C@H](CO)NC(=O)c2ccc3sccc3c2)CC1)NO` [Ex 114, Benzo[b]thiophene-5-carboxylic acid{2-[4-(3-hydroxycarbamoyl-propyl)-piperidin-1-yl]-1-(S)-hydroxymethyl-2-oxo-ethyl}-amide], half-maximal inhibition in test [1] (IC50) was put at 340 nM. In test [2], the “% inhib. 0.1 μM” value is reported as 61%.

In test [1], `NC[C@@H](NC(=O)c1cc2ccccc2s1)C(=O)N1CCC(CCCC(=O)NO)CC1` [Ex 115, 2-oxo-ethyl}-amideBenzo[b]thiophene-2-carboxylic acid{1-(R)-aminomethyl-2-[4-(3-hydroxycarbamoyl-propyl)-piperidin-1-yl]-] yielded an IC50 of 900 nM. In test [2], the “% inhib. 0.1 μM” value was found to be 62%.

In test [1] (Homo sapiens, HCT-116, 72 h), `O=C(CCCC1CCN(C(=O)[C@H](CO)NC(=O)c2nccc3ccccc23)CC1)NO` [Ex 122, Isoquinoline-1-carboxylic acid {2-[4-(3-hydroxycarbamoyl-propyl)-piperidin-1-yl]-1-(S)-hydroxymethyl-2-oxo-ethyl}-amide] yielded an IC50 of 420 nM. The “% inhib. 0.1 μM” value in test [2] worked out at 42%.

In the case of `Cc1ccc(NC(=O)N2CCC(CCCC(=O)NO)CC2)c(N)c1` [Ex 126, 4-(3-Hydroxycarbamoyl-propyl)-piperidine-1-carboxylic acid (2-amino-4-methyl-phenyl)-amide], in test [1] (Homo sapiens, HCT-116, 72 h), the 50% inhibitory concentration (IC50) was determined as 400 nM. Moreover, in test [2], the “% inhib. 0.1 μM” value stood at 63%.

As for `CCCOc1ccc(NC(=O)N2CCC(CCCC(=O)NO)CC2)cc1` [Ex 137, 4-(3-Hydroxycarbamoyl-propyl)-piperidine-1-carboxylic acid (4-propoxy-phenyl)-amide], the 50% inhibitory concentration (IC50) in test [1] (Homo sapiens, HCT-116, 72 h) was 150 nM. Moreover, the “% inhib. 0.1 μM” value in test [2] turned out to be 68%.
